From US20220119354A1, “DIAMINO-SUBSTITUTED PYRIDINES AND PYRIMIDINES AS HERBICIDES” (FMC Corporation, priority 2019, published 2022)

Experiments:
Type in all cases: in vivo
kochia (Kochia scoparia) [1] = assay: Test A preemergence, kochia; conditions: 0 to 100 scale, 0 is no effect, 100 is complete control
Procedure, shortened: (§1)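 Pots of loam–sand mix; preemergence directed soil spray at sowing, postemergence spray at one- to two-leaf stage. Readout: visual injury vs untreated controls, ~10 d, 0–100 scale.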

[2] = tested on: foxtail, giant (Setaria faberii); assay: Test A postemergence, giant foxtail; conditions: Setaria faberi, post-emergence, 240 h, 0 to 100 scale, 0 no effect, 100 complete control, read-out: Plant response rating, Foxtail, Giant; for pest or weed control at 125 g/ha: 125 g ai/ha; for pest or weed control at 500 g/ha: 500 g ai/ha
Procedure, shortened: as §1

[3] = tested on: ragweed (common ragweed, Ambrosia elatior); assay: Test A preemergence, ragweed; conditions: 0 to 100 scale, 0 is no effect, 100 is complete control
Procedure, shortened: as §1

[4] = tested on: ragweed (common ragweed, Ambrosia elatior); assay: Test A postemergence, ragweed; conditions: Ambrosia artemisiifolia, post-emergence, 240 h, 0 to 100 scale, 0 no effect, 100 complete control, read-out: Plant response rating, Ragweed; for pest or weed control at 125 g/ha: 125 g ai/ha; for pest or weed control at 500 g/ha: 500 g ai/ha
Procedure, shortened: as §1

[5] = tested on: ryegrass, Italian (Lolium multiflorum); assay: Test A postemergence, Italian ryegrass; conditions: Lolium multiflorum, post-emergence, 240 h, 0 to 100 scale, 0 no effect, 100 complete control, read-out: Plant response rating, Ryegrass, Italian; for pest or weed control at 125 g/ha: 125 g ai/ha; for pest or weed control at 500 g/ha: 500 g ai/ha
Procedure, shortened: as §1

[6] = tested on: ryegrass, Italian (Lolium multiflorum); assay: Test A preemergence, Italian ryegrass; conditions: 0 to 100 scale, 0 is no effect, 100 is complete control
Procedure, shortened: as §1

[7] = tested on: galium (catchweed bedstraw, Galium aparine); assay: Test A postemergence, galium; conditions: Galium, post-emergence, 240 h, 0 to 100 scale, 0 no effect, 100 complete control, read-out: Plant response rating, Galium; for pest or weed control at 125 g/ha: 125 g ai/ha; for pest or weed control at 500 g/ha: 500 g ai/ha
Procedure, shortened: as §1

[8] = tested on: wheat (Triticum aestivum); assay: Test A postemergence, wheat; conditions: Triticum aestivum, post-emergence, 240 h, 0 to 100 scale, 0 no effect, 100 complete control, read-out: Plant response rating, Wheat; for plant injury at 125 g/ha: 125 g ai/ha; for plant injury at 500 g/ha: 500 g ai/ha
Procedure, shortened: as §1

[9] = tested on: blackgrass (Alopecurus myosuroides); assay: Test A postemergence, blackgrass; conditions: Alopecurus myosuroides, post-emergence, 240 h, 0 to 100 scale, 0 no effect, 100 complete control, read-out: Plant response rating, Blackgrass; for pest or weed control at 125 g/ha: 125 g ai/ha; for pest or weed control at 500 g/ha: 500 g ai/ha
Procedure, shortened: as §1

[10] = tested on: barnyardgrass (Echinochloa crus-galli); assay: Test A postemergence, barnyardgrass; conditions: Echinochloa crus-galli, post-emergence, 240 h, 0 to 100 scale, 0 no effect, 100 complete control, read-out: Plant response rating, Barnyardgrass; for pest or weed control at 125 g/ha: 125 g ai/ha; for pest or weed control at 500 g/ha: 500 g ai/ha
Procedure, shortened: as §1

[11] = tested on: pigweed (Amaranthus retroflexus); assay: Test A postemergence, pigweed; conditions: Amaranthus retroflexus, post-emergence, 240 h, 0 to 100 scale, 0 no effect, 100 complete control, read-out: Plant response rating, Pigweed; for pest or weed control at 125 g/ha: 125 g ai/ha; for pest or weed control at 500 g/ha: 500 g ai/ha
Procedure, shortened: as §1

[12] = tested on: ducksalad (Heteranthera limosa); assay: Test B flooded paddy test, ducksalad; conditions: Heteranthera limosa, 360 h; Flood, 250 g ai/ha, applied to paddy water, 2-leaf stage, visual evaluation after 13 to 15 d; read-out: Plant response rating, Ducksalad (0 to 100 scale, 0 is no effect, 100 is complete control)
Procedure, shortened: (§2)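 2-leaf seedlings; pots flooded 3 cm above soil; compound added straight to paddy water; depth maintained. Greenhouse 13–15 d. Visual rating vs controls, 0–100 scale (0 = no effect, 100 = complete control).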

kochia (Kochia scoparia) [13] = assay: Test A postemergence, kochia; conditions: Bassia scoparia, post-emergence, 240 h, 0 to 100 scale, 0 no effect, 100 complete control, read-out: Plant response rating, Kochia; for pest or weed control at 125 g/ha: 125 g ai/ha; for pest or weed control at 500 g/ha: 500 g ai/ha
Procedure, shortened: as §1

[14] = tested on: barnyardgrass (Echinochloa crus-galli); assay: Test B flooded paddy test, barnyardgrass; conditions: Echinochloa crus-galli, 360 h; Flood, 250 g ai/ha, applied to paddy water, 2-leaf stage, visual evaluation after 13 to 15 d; read-out: Plant response rating, Barnyardgrass (0 to 100 scale, 0 is no effect, 100 is complete control)
Procedure, shortened: as §2

corn (Zea mays) = assay: Test A postemergence, corn; conditions: Zea mays, post-emergence, 240 h, 0 to 100 scale, 0 no effect, 100 complete control; for Corn plant response rating (crop injury, 0 = no effect, 100 = complete kill) at 125 g/ha: 125 g ai/ha; for Corn plant response rating (crop injury, 0 = no effect, 100 = complete kill) at 500 g/ha: 500 g ai/ha
Procedure, shortened: as §1

[15] = tested on: foxtail, giant (Setaria faberii); assay: Test A preemergence, giant foxtail; conditions: 0 to 100 scale, 0 is no effect, 100 is complete control
Procedure, shortened: as §1

[16] = tested on: barnyardgrass (Echinochloa crus-galli); assay: Test A preemergence, barnyardgrass; conditions: 0 to 100 scale, 0 is no effect, 100 is complete control
Procedure, shortened: as §1

[17] = tested on: pigweed (Amaranthus retroflexus); assay: Test A preemergence, pigweed; conditions: 0 to 100 scale, 0 is no effect, 100 is complete control
Procedure, shortened: as §1

| Structure (SMILES) | Kochia plant response rating (kochia (Kochia scoparia) [1]; 125 g ai/ha) | Kochia plant response rating (kochia (Kochia scoparia) [1]; 500 g ai/ha) | pest or weed control at 125 g/ha [2] [%] | pest or weed control at 500 g/ha [2] [%] | Ragweed plant response rating ([3]; 125 g ai/ha) | Ragweed plant response rating ([3]; 500 g ai/ha) | pest or weed control at 125 g/ha [4] [%] | pest or weed control at 500 g/ha [4] [%] | pest or weed control at 125 g/ha [5] [%] | pest or weed control at 500 g/ha [5] [%] | Ryegrass, Italian plant response rating ([6]; 125 g ai/ha) | Ryegrass, Italian plant response rating ([6]; 500 g ai/ha) | pest or weed control at 125 g/ha [7] [%] | pest or weed control at 500 g/ha [7] [%] | plant injury at 125 g/ha [8] [%] | plant injury at 500 g/ha [8] [%] | pest or weed control at 125 g/ha [9] [%] | pest or weed control at 500 g/ha [9] [%] | pest or weed control at 125 g/ha [10] [%] | pest or weed control at 500 g/ha [10] [%] | further results |
| --- | --- | --- | --- | --- | --- | --- | --- | --- | --- | --- | --- | --- | --- | --- | --- | --- | --- | --- | --- | --- | --- |
| C[C@@H](Nc1ncc(C(F)(F)F)c(N)n1)c1cc2c(F)cccc2s1 [Compound 61, N2-[(1R)-1-(4-fluorobenzo[b]thien-2-yl)ethyl]-5-(trifluoromethyl)-2,4-pyrimidinediamine] | 90 | 90 | 90 | 90 | 90 | 100 | 60 | 100 | 50 | 90 | 40 | 100 | 70 | 100 | 20 | 30 | 80 | 70 | 80 | 100 | pest or weed control at 125 g/ha [11]: 100%; pest or weed control at 500 g/ha [11]: 100%; pest or weed control at 250 g/ha [12]: 50%; pest or weed control at 125 g/ha (kochia (Kochia scoparia) [13]): 80%; pest or weed control at 500 g/ha (kochia (Kochia scoparia) [13]): 90%; pest or weed control at 250 g/ha [14]: 40%; Corn plant response rating (crop injury, 0 = no effect, 100 = complete kill) at 125 g/ha (corn (Zea mays)): 10%; Corn plant response rating (crop injury, 0 = no effect, 100 = complete kill) at 500 g/ha (corn (Zea mays)): 60%; Foxtail, Giant plant response rating ([15]; 125 g ai/ha): 100; Foxtail, Giant plant response rating ([15]; 500 g ai/ha): 100; Barnyardgrass plant response rating ([16]; 125 g ai/ha): 80; Barnyardgrass plant response rating ([16]; 500 g ai/ha): 90; Pigweed plant response rating ([17]; 125 g ai/ha): 100; Pigweed plant response rating ([17]; 500 g ai/ha): 100 |
| C[C@@H](Nc1ncc(C(F)(F)F)c(N)n1)c1cc2cccc(F)c2o1 [Compound 71, N2-[(1R)-1-(7-fluoro-2-benzofuranyl)ethyl]-5-(trifluoromethyl)-2,4-pyrimidinediamine] | 90 | 100 | 60 | 90 | 100 | 100 | 80 | 90 | 30 | 70 | 20 | 80 | 80 | 90 | 0 | 0 | 0 | 50 | 30 | 100 | pest or weed control at 125 g/ha [11]: 100%; pest or weed control at 500 g/ha [11]: 100%; pest or weed control at 250 g/ha [12]: 0%; pest or weed control at 125 g/ha (kochia (Kochia scoparia) [13]): 90%; pest or weed control at 500 g/ha (kochia (Kochia scoparia) [13]): 90%; pest or weed control at 250 g/ha [14]: 0%; Corn plant response rating (crop injury, 0 = no effect, 100 = complete kill) at 125 g/ha (corn (Zea mays)): 0%; Corn plant response rating (crop injury, 0 = no effect, 100 = complete kill) at 500 g/ha (corn (Zea mays)): 40%; Foxtail, Giant plant response rating ([15]; 125 g ai/ha): 90; Foxtail, Giant plant response rating ([15]; 500 g ai/ha): 100; Barnyardgrass plant response rating ([16]; 125 g ai/ha): 70; Barnyardgrass plant response rating ([16]; 500 g ai/ha): 100; Pigweed plant response rating ([17]; 125 g ai/ha): 100; Pigweed plant response rating ([17]; 500 g ai/ha): 100 |
| C[C@@H](Nc1ncc(C(F)(F)F)c(N)n1)c1cc2c(F)cccc2o1 [Compound 73, N2-[(1R)-1-(4-fluoro-2-benzofuranyl)ethyl]-5-(trifluoromethyl)-2,4-pyrimidinediamine] | 100 | 100 | 70 | 100 | 100 | 100 | 90 | 100 | 90 | 100 | 100 | 100 | 90 | 90 | 0 | 0 | 50 | 80 | 60 | 100 | pest or weed control at 125 g/ha [11]: 100%; pest or weed control at 500 g/ha [11]: 100%; pest or weed control at 250 g/ha [12]: 98%; pest or weed control at 125 g/ha (kochia (Kochia scoparia) [13]): 90%; pest or weed control at 500 g/ha (kochia (Kochia scoparia) [13]): 100%; pest or weed control at 250 g/ha [14]: 65%; Corn plant response rating (crop injury, 0 = no effect, 100 = complete kill) at 125 g/ha (corn (Zea mays)): 30%; Corn plant response rating (crop injury, 0 = no effect, 100 = complete kill) at 500 g/ha (corn (Zea mays)): 40%; Foxtail, Giant plant response rating ([15]; 125 g ai/ha): 100; Foxtail, Giant plant response rating ([15]; 500 g ai/ha): 100; Barnyardgrass plant response rating ([16]; 125 g ai/ha): 90; Barnyardgrass plant response rating ([16]; 500 g ai/ha): 100; Pigweed plant response rating ([17]; 125 g ai/ha): 100; Pigweed plant response rating ([17]; 500 g ai/ha): 100 |
